# Reference: patent US20090246880A1, “Method for preventing degradation of diacetylpolyamine” (priority 2008, published 2009)
# Description: The present invention will next be described in detail by way of examples, which should not be construed as limiting the invention thereto. The percent degradation of diacetylspermine (%) in a sample was calculated on the basis of the amount of diacetylspermine as determined through ELISA. […] Subsequently, the pH of the mixture was adjusted with 50 mM phosphate buffer to 5.5, 6.0, 6.5, 7.0, 7.5, or 8.0. Thereafter, the reaction mixture was incubated at 37° C. for two hours. […] Subsequently, the ratio of the amount of diacetylspermine degraded through incubation to the initial amount of diacetylspermine was calculated.
structure (smiles),measurement,value
CC(=O)NCCCNCCCCNCCCNC(C)=O [diacetylspermine],degradation of diacetylspermine (in words),prevented
